Literature values as cited in patent publication US20170252312A1, “PREPARATIONS FOR TREATMENT AND PREVENTION OF ALCOHOL FLUSHING AND ALCOHOL-INDUCED HYPERSENSITIVITY REACTIONS” (BIOHIT OYJ, priority 2014, published 2017).

Columns and labels:
ADH enzyme = details: ALDH2-deficient individuals
[1] = tested on: microbial acetaldehyde formation from ethanol

In the case of `Cc1cn[nH]c1` [4-MP, 4-methylpyrazole], the “alcohol-induced increase in salivary acetaldehyde levels” value (ADH enzyme) is listed as “markedly decrease”, the “flushing response to alcohol” value (ADH enzyme) is listed as “suppressed also significantly” and the “increase in heart rate and skin temperature and drop in diastolic blood pressure” value (ADH enzyme; 4-MP used before ethanol intake) is listed as “disappeared”.

For `CC=O` [Acetaldehyde], the histamine release (rat mast cells) is listed as “enhance histamine release” and the histamine release (human mast cells) is listed as “enhance histamine release”.

In the case of `OC[C@@H](O)[C@H](O)[C@@H](O)CO` [xylitol], the “inhibition of microbial acetaldehyde formation from ethanol” value [1] is given as “inhibit microbial acetaldehyde formation from ethanol”.
